Active and inactive are the calls of the source. Cut-off read from the data, not from the text of the source, for most assays here: actives have a measured IC50 and inactives only a lower limit.
Tests used:
[1] = molecular target: T1, Sentrin-specific protease 6 (Homo sapiens, UniProt Q9GZR1); type: functional;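 note: Luminescence-based dose-response confirmatory assay of SENP6 inhibition, following up an ultra-high-throughput screen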
T1 sequence (Q9GZR1 whole entry): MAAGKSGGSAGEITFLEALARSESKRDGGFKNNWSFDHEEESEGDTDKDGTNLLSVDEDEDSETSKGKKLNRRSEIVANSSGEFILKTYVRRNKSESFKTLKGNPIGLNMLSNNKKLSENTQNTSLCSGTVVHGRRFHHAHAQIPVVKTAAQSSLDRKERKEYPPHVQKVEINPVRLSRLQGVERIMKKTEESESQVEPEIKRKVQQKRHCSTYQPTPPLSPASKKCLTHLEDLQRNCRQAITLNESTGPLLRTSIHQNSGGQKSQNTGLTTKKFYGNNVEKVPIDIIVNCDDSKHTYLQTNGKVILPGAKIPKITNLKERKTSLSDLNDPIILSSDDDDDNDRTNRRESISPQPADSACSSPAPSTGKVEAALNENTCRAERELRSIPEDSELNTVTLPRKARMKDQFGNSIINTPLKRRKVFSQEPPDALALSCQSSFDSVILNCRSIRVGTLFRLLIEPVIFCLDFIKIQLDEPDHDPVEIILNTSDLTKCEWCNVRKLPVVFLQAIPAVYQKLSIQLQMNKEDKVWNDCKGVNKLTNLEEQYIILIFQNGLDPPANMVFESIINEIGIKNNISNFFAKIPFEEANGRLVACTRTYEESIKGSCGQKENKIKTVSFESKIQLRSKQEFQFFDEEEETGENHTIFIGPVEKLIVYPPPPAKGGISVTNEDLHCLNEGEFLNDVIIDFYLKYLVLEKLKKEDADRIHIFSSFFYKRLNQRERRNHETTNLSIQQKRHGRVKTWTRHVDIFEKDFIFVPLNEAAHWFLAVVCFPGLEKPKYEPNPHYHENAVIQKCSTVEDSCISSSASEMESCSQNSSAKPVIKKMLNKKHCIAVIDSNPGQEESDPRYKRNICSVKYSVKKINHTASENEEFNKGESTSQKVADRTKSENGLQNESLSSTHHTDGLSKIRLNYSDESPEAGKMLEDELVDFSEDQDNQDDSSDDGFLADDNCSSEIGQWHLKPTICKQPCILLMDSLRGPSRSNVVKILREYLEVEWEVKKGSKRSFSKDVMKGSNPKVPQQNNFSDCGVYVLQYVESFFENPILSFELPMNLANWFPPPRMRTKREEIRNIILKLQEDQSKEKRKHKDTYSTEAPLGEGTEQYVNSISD

[2] = molecular target: T2, Sentrin-specific protease 7 (Homo sapiens, UniProt Q9BQF6); type: functional;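 note: Luminescence-based dose-response confirmation of ultra-high-throughput screening hits, measuring inhibition of SENP7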
T2 sequence (Q9BQF6 whole entry): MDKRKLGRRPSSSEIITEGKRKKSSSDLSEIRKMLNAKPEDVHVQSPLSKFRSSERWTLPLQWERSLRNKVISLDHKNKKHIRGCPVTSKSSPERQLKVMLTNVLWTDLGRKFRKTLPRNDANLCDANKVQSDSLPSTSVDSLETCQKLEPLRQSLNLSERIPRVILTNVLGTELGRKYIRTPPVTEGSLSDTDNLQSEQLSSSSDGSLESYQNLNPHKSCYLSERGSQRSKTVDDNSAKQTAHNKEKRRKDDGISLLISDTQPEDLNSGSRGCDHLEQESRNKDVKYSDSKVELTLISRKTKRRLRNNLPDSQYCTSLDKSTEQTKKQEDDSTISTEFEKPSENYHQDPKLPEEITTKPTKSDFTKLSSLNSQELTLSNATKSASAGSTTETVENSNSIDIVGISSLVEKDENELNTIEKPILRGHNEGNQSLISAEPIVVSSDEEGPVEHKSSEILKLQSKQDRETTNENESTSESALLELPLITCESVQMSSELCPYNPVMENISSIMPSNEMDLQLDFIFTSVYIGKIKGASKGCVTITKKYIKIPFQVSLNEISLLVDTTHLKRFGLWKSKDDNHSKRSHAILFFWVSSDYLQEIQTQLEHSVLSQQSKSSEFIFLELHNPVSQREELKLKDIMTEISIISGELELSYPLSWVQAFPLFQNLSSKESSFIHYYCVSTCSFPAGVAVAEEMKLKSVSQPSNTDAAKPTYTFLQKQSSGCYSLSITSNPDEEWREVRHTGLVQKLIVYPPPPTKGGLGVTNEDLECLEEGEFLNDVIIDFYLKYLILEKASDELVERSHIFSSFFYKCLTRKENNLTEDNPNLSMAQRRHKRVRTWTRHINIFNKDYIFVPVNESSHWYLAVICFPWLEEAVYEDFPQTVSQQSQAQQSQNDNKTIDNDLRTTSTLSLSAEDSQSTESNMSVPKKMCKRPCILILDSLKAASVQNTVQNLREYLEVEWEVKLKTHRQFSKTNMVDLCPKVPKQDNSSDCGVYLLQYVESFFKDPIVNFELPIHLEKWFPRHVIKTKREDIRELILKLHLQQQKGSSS

[3] = molecular target: T3, Sentrin-specific protease 8 (Homo sapiens, UniProt Q96LD8); type: functional;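 note: luminescence read-out of SENP8 inhibition, dose-response confirmation following an ultra-high-throughput screen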
T3 sequence (Q96LD8 whole entry): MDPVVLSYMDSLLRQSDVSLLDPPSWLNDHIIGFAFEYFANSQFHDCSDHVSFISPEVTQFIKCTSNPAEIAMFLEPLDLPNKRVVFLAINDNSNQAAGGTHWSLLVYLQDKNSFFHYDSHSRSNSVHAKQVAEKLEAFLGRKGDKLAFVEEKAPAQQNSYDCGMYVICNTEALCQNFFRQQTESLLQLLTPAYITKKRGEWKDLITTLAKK

[4] = molecular target: T4, Caspase-3 (Homo sapiens, UniProt P42574); type: functional;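 note: Dose-response selectivity test against caspase-3 for candidate inhibitors of sentrin-specific proteases (SENPs)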
T4 sequence (P42574 whole entry): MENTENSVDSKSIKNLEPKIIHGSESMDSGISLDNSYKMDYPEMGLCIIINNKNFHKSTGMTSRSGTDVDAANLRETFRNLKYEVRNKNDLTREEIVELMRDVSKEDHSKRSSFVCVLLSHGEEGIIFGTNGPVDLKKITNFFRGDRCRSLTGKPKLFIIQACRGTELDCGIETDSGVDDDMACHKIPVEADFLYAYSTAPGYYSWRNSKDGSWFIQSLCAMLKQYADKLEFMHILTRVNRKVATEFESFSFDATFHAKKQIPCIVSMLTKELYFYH

[5] = molecular target: T5, Tyrosyl-DNA phosphodiesterase 2 (Homo sapiens, UniProt O95551); assay: human TDP2 enzyme inhibitors, dose response, biochemical, epi absorbance, IC50 (AID 743297)
T5 sequence (O95551 whole entry): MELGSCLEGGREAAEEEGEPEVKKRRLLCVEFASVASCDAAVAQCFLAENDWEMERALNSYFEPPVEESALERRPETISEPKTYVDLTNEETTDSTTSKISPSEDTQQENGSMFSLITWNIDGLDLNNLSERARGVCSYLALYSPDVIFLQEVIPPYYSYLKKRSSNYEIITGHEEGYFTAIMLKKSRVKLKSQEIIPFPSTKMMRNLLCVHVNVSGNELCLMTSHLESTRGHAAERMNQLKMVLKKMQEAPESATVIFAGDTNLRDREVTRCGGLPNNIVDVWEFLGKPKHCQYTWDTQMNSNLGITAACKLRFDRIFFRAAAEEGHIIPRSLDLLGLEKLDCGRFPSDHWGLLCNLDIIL

SMILES	IC50 [1]	IC50 [2]	IC50 [3]	IC50 [4]	IC50 [5]
O=c1[nH]c(N2CCOCC2)cc2ccccc12	< 1.55 µM (active)	1.96 µM (active)	2.12 µM (active)	1.59 µM (active)	–
CCC(COC)Oc1cc(NCc2ccccc2)c2ncn(C(C)C)c2c1 (centres undefined)	3.62 µM (active)	5.61 µM (active)	4.26 µM (active)	6.47 µM (active)	> 42.8 µM (inactive)
O=C1c2ccccc2C(=O)C12OC2c1cccc2ccccc12 (centres undefined)	2.37 µM (active)	2.86 µM (active)	4.53 µM (active)	91.9 µM (active)	5.07 µM (active)

— ChEMBL document CHEMBL1201862, “PubChem BioAssay data set” (2004)
